Earlier results as cited in patent US20050032891A1, “Method for treating alcoholic hepatitis” (University of Pittsburgh-of the Commonwealth System of …, priority 2003, published 2005).

Test system: rats subjected to hemorrhagic shock and resuscitation
Conditions: treatment with EP

In the case of `CCOC(=O)C(C)=O` [EP, ethyl pyruvate], the hepatic lipid peroxidation is given as “decreases hepatic lipid peroxidation”.
